Test results as given in patent US20090181889A1, “COMPOSITIONS AND METHODS FOR DETECTION AND TREATMENT OF HUMAN HERPESVIRUS (HHV)-6” (priority 2006, published 2009).

Experiments:
HHV-6B U51 [1] = target: T1, HHV-6B U51 (Human herpesvirus 6B, UniProt P52542); assay type: biochemical; conditions: HHV-6B U51 HEK293 membranes; for % Control [35S]GTPγS binding ± SEM, U51 (+Tet): induced with 1 μg/ml tetracycline 24 h; for % Control [35S]GTPγS binding ± SEM, U51 (Unind): no tetracycline (uninduced)
[2] = test system: wild-type 293 cells (HEK 293 cell membranes); assay: [35S]GTPγS binding to native (wild-type) HEK293 cell membranes; assay type: biochemical, human; conditions: binding without compound = 100%, three experiments
[3] = test system: human μ, δ, or κ opioid receptor; assay: [35S]GTPγS binding to control CHO cell membranes with opioid receptors; assay type: biochemical; conditions: CHO cells stably transfected with human μ, Emax obtained at opioid concentration less than 1 μM
[4] = test system: herpesviruses serine proteases; conditions: cited from earlier work
HHV-6B U51 [5] = target: T1, HHV-6B U51; assay type: binding
U51 = target: T2, U51 (Human herpesvirus 6A, UniProt P52382); conditions: Fitzsimons C P, et al. 2005; cited from earlier work
T2 sequence (P52382 1-301): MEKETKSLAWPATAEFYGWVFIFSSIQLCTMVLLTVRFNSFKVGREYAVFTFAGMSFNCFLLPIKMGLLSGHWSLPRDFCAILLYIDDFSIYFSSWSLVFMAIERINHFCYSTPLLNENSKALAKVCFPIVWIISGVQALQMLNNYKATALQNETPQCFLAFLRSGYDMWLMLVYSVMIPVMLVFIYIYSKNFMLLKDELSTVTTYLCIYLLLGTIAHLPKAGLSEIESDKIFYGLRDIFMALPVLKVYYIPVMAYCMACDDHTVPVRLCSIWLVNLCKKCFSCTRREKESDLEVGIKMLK

HHV-6B U51 [6] = target: T3, HHV-6B U51 (Human herpesvirus 6B, UniProt P52542); assay type: biochemical; conditions: HHV-6B U51 HEK293 membranes; for % Control [35S]GTPγS binding ± SEM, U51 (+Tet): induced with 1 μg/ml tetracycline 24 h; for % Control [35S]GTPγS binding ± SEM, U51 (Unind): no tetracycline (uninduced); remark: listed apart in the source
T3 sequence (P52542 whole entry, looked up): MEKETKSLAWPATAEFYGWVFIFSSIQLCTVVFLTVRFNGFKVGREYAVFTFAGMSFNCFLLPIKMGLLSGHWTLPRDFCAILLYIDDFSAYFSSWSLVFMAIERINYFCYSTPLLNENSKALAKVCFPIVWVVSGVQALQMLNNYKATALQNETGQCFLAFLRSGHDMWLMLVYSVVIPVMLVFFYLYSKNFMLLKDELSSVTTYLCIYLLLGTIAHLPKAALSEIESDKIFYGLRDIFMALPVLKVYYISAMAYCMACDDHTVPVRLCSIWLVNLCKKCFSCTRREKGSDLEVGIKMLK

HHV-6 U51 = target: T4, HHV-6 U51 (Human herpesvirus 6A, UniProt P52382); conditions: Beisser, et al. 1998; cited from earlier work
T4 sequence (P52382 1-301): T2 sequence (P52382 1-301)

HEK293 cells = assay type: cell-based, human

## C[C@@H](NC(=O)[C@@H](N)Cc1ccc(O)cc1)C(=O)NCC(=O)N(C)[C@@H](Cc1ccccc1)C(=O)NCCO [DAMGO]
HHV-6B U51 [1]
  % Control [35S]GTPγS binding ± SEM, U51 (+Tet): 86 ± 6%
  % Control [35S]GTPγS binding ± SEM, U51 (Unind): 96 ± 3%
[2]
  % Control [35S]GTPγS binding ± SEM, Native: 106 ± 4%
[3]
  Control Cell Emax, % Control [35S]GTPγS binding ± SEM: 216 ± 4.4%

## CC(C)[C@H](NC(=O)[C@H](CCC(=O)O)NC(=O)[C@H](Cc1ccccc1)NC(=O)[C@@H](C)NC(=O)[C@@H](N)Cc1ccc(O)cc1)C(=O)N[C@H](C(=O)NCC(N)=O)C(C)C [Deltorphin II]
HHV-6B U51 [1]
  % Control [35S]GTPγS binding ± SEM, U51 (+Tet): 91 ± 6%
  % Control [35S]GTPγS binding ± SEM, U51 (Unind): 98 ± 2%

## CN1CC[C@]23c4c5ccc(O)c4O[C@H]2[C@@H](O)C=C[C@H]3[C@H]1C5 [Morphine, morphine]
HHV-6B U51 [1]
  % Control [35S]GTPγS binding ± SEM, U51 (+Tet): 91 ± 9%
  % Control [35S]GTPγS binding ± SEM, U51 (Unind): 99 ± 0.9%
[2]
  % Control [35S]GTPγS binding ± SEM, Native: 99 ± 9%

## Oc1ccc2c3c1O[C@H]1c4[nH]c5ccccc5c4C[C@@]4(O)[C@@H](C2)N(CC2CC2)CC[C@]314 [Naltrindole, naltrindole]
HHV-6B U51 [1]
  % Control [35S]GTPγS binding ± SEM, U51 (+Tet): 97 ± 4%
  % Control [35S]GTPγS binding ± SEM, U51 (Unind): 98 ± 4%
[2]
  % Control [35S]GTPγS binding ± SEM, Native: 96 ± 4%

## O=S(=O)(F)Cc1ccccc1 [PMSF, phenylmethylsulphonyi fluoride]
[4]
  inhibition of herpesvirus serine proteases: weakly inhibited

## C[C@@H](NC(=O)[C@@H](N)Cc1ccc(O)cc1)C(=O)NCC(=O)N(C)[C@@H](Cc1ccccc1)C(=O)NCCO [[^3H]DAMGO]
HHV-6B U51 [5]
  specific binding of radiolabelled opioid to HHV-6B U51 membranes: did not specifically bind

## CCC12CCN(CC3(O)CC3)C(Cc3ccc(O)cc31)C2(C)C (centres unmarked) [[^3H]bremazocine]
HHV-6B U51 [5]
  specific binding of radiolabelled opioid to HHV-6B U51 membranes: did not specifically bind

## Oc1ccc2c3c1O[C@H]1c4[nH]c5ccccc5c4C[C@@]4(O)[C@@H](C2)N(CC2CC2)CC[C@]314 [[^3H]naltrindole]
HHV-6B U51 [5]
  specific binding of radiolabelled opioid to HHV-6B U51 membranes: did not specifically bind

## CCL2: chemokine
U51
  action at U51: agonists

## CCL11: chemokine
U51
  action at U51: agonists

## DPDPE
HHV-6B U51 [1]
  % Control [35S]GTPγS binding ± SEM, U51 (+Tet): 99 ± 2%
  % Control [35S]GTPγS binding ± SEM, U51 (Unind): 96 ± 1%
[2]
  % Control [35S]GTPγS binding ± SEM, Native: 104 ± 1%
[3]
  Control Cell Emax, % Control [35S]GTPγS binding ± SEM: 254 ± 16%

## Interleukin-8: chemokine ligand
HHV-6B U51 [6]
  % Control [35S]GTPγS binding ± SEM, U51 (+Tet): 96 ± 3%
  % Control [35S]GTPγS binding ± SEM, U51 (Unind): 96 ± 2%
[2]
  % Control [35S]GTPγS binding ± SEM, Native: 101 ± 5%

## MCP-3: chemokine ligand
HHV-6B U51 [6]
  % Control [35S]GTPγS binding ± SEM, U51 (+Tet): 103 ± 2%
  % Control [35S]GTPγS binding ± SEM, U51 (Unind): 109 ± 9%
[2]
  % Control [35S]GTPγS binding ± SEM, Native: 97 ± 3%

## RANTES: β-chemokine (CC-chemokine)
U51
  action at U51: agonists
HHV-6B U51 [6]
  % Control [35S]GTPγS binding ± SEM, U51 (+Tet): 104 ± 2%
  % Control [35S]GTPγS binding ± SEM, U51 (Unind): 111 ± 1%
HHV-6 U51
  binding affinity to HHV-6 U51: nanomolar affinity
[2]
  % Control [35S]GTPγS binding ± SEM, Native: 101 ± 2%

## US28: human cytomegalovirus 7-transmembrane protein, expressed from plasmid as positive control
HEK293 cells
  cell fusion activity compared to cells transfected with VSV-G alone: ~3 fold

## kappa opioid receptor: rat kappa opioid receptor expression plasmid, negative control
HEK293 cells
  cell fusion activity compared to cells transfected with VSV-G alone: no effect

B1: Lymphotactin: chemokine ligand (protein)
chain: VGSEVSDKRTCVSLTTQRLPVSRIKTYTITEGSLRAVIFITKRGLKVCADPQATWVRDVVRSMDRKSNTRNNMIQTKPTGTQQSTNTAVTLTG
HHV-6B U51 [6]
  % Control [35S]GTPγS binding ± SEM, U51 (+Tet): 104 ± 7%
  % Control [35S]GTPγS binding ± SEM, U51 (Unind): 99 ± 3%
[2]
  % Control [35S]GTPγS binding ± SEM, Native: 97 ± 2%
